Laboratory results published in ChEMBL document CHEMBL1130490, “The Role of 4-phosphonodifluoromethyl- and 4-phosphono-phenylalanine in the selectivity and cellular uptake of SH2 domain ligands” (Bioorg Med Chem Lett, 1997).
Where a SMILES comes first, the peptide text is derived from it. [ ]: non-standard residue; d: D form. pY = N[C@@H](Cc1ccc(OP(=O)(O)O)cc1)C(=O)O

Key:
Mus musculus = species: Mus musculus; assay: Uptake rate for compound into Balbc3T3 cells normalized to 100 uM was measured; format: functional
[1] = target: T1, Tyrosine-protein kinase ABL1 (Homo sapiens, UniProt P00519); assay: Inhibition of [35S]-labeled SH2-GST Abl binding to the phospho-PDGF receptor intracellular domain
T1 sequence (P00519 whole entry, the tested form may be a part): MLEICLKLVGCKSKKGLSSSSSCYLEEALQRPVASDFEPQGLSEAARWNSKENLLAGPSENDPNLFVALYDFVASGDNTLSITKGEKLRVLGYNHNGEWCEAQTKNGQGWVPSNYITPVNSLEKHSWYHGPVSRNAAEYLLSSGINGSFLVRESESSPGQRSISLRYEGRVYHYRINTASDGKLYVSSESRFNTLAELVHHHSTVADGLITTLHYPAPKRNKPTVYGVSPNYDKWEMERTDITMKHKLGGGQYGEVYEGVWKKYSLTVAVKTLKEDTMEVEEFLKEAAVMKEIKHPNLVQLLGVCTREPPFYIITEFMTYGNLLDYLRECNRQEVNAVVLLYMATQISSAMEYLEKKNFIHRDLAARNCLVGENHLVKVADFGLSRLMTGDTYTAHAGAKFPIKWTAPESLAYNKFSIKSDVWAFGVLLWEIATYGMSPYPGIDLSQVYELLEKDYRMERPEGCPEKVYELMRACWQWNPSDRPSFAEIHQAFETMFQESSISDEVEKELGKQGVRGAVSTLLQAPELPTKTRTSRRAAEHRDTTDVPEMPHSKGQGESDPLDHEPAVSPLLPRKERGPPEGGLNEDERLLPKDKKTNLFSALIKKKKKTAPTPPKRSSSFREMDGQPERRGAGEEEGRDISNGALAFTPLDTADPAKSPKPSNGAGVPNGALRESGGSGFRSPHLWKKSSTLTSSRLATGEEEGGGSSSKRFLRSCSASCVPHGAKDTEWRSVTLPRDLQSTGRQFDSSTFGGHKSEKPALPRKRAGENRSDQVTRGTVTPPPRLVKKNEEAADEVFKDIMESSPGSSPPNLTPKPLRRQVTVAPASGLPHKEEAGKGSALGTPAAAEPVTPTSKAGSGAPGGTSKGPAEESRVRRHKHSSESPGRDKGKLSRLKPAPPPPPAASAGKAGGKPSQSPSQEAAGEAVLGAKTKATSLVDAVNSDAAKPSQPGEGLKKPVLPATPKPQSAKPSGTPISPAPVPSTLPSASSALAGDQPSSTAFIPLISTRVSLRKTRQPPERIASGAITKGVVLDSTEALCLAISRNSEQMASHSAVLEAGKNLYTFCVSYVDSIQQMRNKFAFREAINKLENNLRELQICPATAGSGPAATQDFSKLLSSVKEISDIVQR

[2] = target: T1, Tyrosine-protein kinase ABL1; assay: Radioligand displacement assay for the binding of [125I]Glu-Pro-Gln-pTyr-Glu-Glu-Ile-Pro-Ile-Tyr-Leu to ABL SH2 domain

| SMILES | Uptake rate (nM min-1 cm**-2) (Mus musculus) | IC50 [1] [µM] | IC50 [2] [µM] |
| --- | --- | --- | --- |
| CC[C@H](NC(=O)[C@H](Cc1ccc(C(F)(F)P(=O)(O)OCOC(=O)C(C)(C)C)cc1)NC(C)=O)C(=O)N(C)CCCC1CCCCC1 | 0.01 | – | – |
| CCOP(=O)(OCC)C(F)(F)c1ccc(C[C@H](NC(C)=O)C(=O)N[C@@H](CCC(=O)OC(C)(C)C)C(=O)N(C)CCCC2CCCCC2)cc1 | 3.2 | – | – |
| CC[C@H](NC(=O)[C@H](Cc1ccc(P(=O)(OCOC(=O)C(C)(C)C)OCOC(=O)C(C)(C)C)cc1)NC(C)=O)C(=O)N(C)CCCC1CCCCC1 | 6.6 | – | – |
| CCOP(=O)(OCC)C(F)(F)c1ccc(C[C@H](NC(C)=O)C(=O)N[C@@H](CCC(=O)O)C(=O)N(C)CCCC2CCCCC2)cc1 | > 0.002 | – | – |
| CCOP(=O)(OCC)c1ccc(C[C@H](NC(C)=O)C(=O)N[C@@H](CC)C(=O)N(C)CCCC2CCCCC2)cc1 | 0.092 | – | – |
| CC[C@H](C)[C@H](NC(=O)[C@H](CCC(=O)O)NC(=O)[C@H](CCC(=O)O)NC(=O)[C@H](Cc1ccc(OP(=O)(O)O)cc1)NC(C)=O)C(=O)N[C@@H](CCC(=O)O)C(=O)O (Ac-[pY]EEIE-OH) | – | 15 | 7.9 |
